Several values for one entry are separate records, joined by “and”; a condition that tells them apart may be missing. Equal entries are not always repeated. In the oligonucleotide strings, read from the 5' end, every base follows the letter of its sugar. An asterisk marks phosphorothioate; unmarked linkages are phosphodiester. Other units and linkages are bracketed, terminal groups are in braces. A string of capitals states the bases alone. e = 2'-O-(2-methoxyethyl) (MOE); [5mC] = 5-methylcytosine; d = 2'-deoxy (DNA)
Test system: human TGF-beta1 mRNA
Test: Antisense inhibition of human TGF-beta1 mRNA in HuVEC cells, single 10 nM dose, Lipofectamine 2000 (Example 2)
Type: cell-based
Conditions: for % inhibition: 10 nM oligonucleotide, HuVEC, relative to untreated control cells; for inhibition of a TGF-beta1 mRNA: threshold lists of Oligo IDs, 10 nM
Method: Antisense oligonucleotides targeted to a TGF-beta1 nucleic acid were tested for their effects on TGF-beta1 mRNA in vitro. Cultured HuVEC cells at a density of 5,000 cells per well were transfected using Lipofectamine™ 2000 reagent with 10 nM antisense oligonucleotide for 4 hours. After a recovery period of approximately 24 hours, RNA was isolated from the cells and TGF-beta1 mRNA levels were measured by quantitative real-time PCR. TGF-beta1 mRNA levels were adjusted according to total RNA content, as measured by RIBOGREEN®. Results are presented as percent inhibition of TGF-beta1, relative to untreated control cells.
The chimeric antisense oligonucleotides in Tables 1 and 2 were designed as 2-13-5 MOE gapmers. Antisense molecules with this motif targeting TGF-beta1 are unique, and represent a novel chemical structure for an ASO directed against this target. The gapmers are 20 nucleotides in length, wherein the central gap segments are comprised of thirteen 2′-deoxynucleotides and are flanked on the 5′ side by wings comprising two nucleotides each and on the 3′ side by wings comprising five nucleotides each. Each nucleotide in the 5′ wing segment and each nucleotide in the 3′ wing segment has a 2′-MOE modification. The internucleoside linkages throughout each gapmer are phosphorothioate (P═S) linkages. All cytosine residues throughout each gapmer are 5-methylcytosines. “Target start site” indicates the 5′-most nucleotide to which the gapmer is targeted. “Target stop site” indicates the 3′-most nucleotide to which the gapmer is targeted. Each gapmer listed in Table 1 is targeted to SEQ ID NO: 1 (GENBANK Accession No. NM_000660.3). Each gapmer listed in Table 2 is targeted to SEQ ID NO: 2 (GENBANK Accession No. NT 011109.15 truncated from 14103000 to […]).

[1] = gapmers targeted to SEQ ID NO: 1

Substance	% inhibition [1]	inhibition of a TGF-beta1 mRNA	% inhibition (gapmers targeted to SEQ ID NO: 2)
414006 (antisense eT*eA*d[5mC]*d[5mC]*dA*dG*dA*dA*dG*dG*dT*dG*dG*dG*dT*eG*eG*eT*e[5mC]*eT) [compound 414006]	85%	60% and 65% and 70% and 75% and 80% and 85%	
414007 (antisense eG*eG*dT*dA*d[5mC]*d[5mC]*dA*dG*dA*dA*dG*dG*dT*dG*dG*eG*eT*eG*eG*eT) [compound 414007]	94%	60% and 65% and 70% and 75% and 80% and 85% and 90%	
414008 (antisense e[5mC]*eT*dG*dG*dT*dA*d[5mC]*d[5mC]*dA*dG*dA*dA*dG*dG*dT*eG*eG*eG*eT*eG) [compound 414008]	89%	60% and 65% and 70% and 75% and 80% and 85%	
414009 (antisense eA*eT*d[5mC]*dT*dG*dG*dT*dA*d[5mC]*d[5mC]*dA*dG*dA*dA*dG*eG*eT*eG*eG*eG) [compound 414009]	80%	60% and 65% and 70% and 75% and 80%	
414010 (antisense e[5mC]*eG*dA*dT*d[5mC]*dT*dG*dG*dT*dA*d[5mC]*d[5mC]*dA*dG*dA*eA*eG*eG*eT*eG) [compound 414010]	88%	60% and 65% and 70% and 75% and 80% and 85%	
414011 (antisense e[5mC]*eG*d[5mC]*dG*dA*dT*d[5mC]*dT*dG*dG*dT*dA*d[5mC]*d[5mC]*dA*eG*eA*eA*eG*eG) [compound 414011]	85%	60% and 65% and 70% and 75% and 80% and 85%	
414012 (antisense eG*eG*d[5mC]*dG*d[5mC]*dG*dA*dT*d[5mC]*dT*dG*dG*dT*dA*d[5mC]*e[5mC]*eA*eG*eA*eA) [compound 414012]	87%	60% and 65% and 70% and 75% and 80% and 85%	
414013 (antisense eT*eG*dG*dG*d[5mC]*dG*d[5mC]*dG*dA*dT*d[5mC]*dT*dG*dG*dT*eA*e[5mC]*e[5mC]*eA*eG) [compound 414013]	90%	60% and 65% and 70% and 75% and 80% and 85% and 90%	
414014 (antisense eG*eA*dT*dG*dG*dG*d[5mC]*dG*d[5mC]*dG*dA*dT*d[5mC]*dT*dG*eG*eT*eA*e[5mC]*e[5mC]) [compound 414014]	89%	60% and 65% and 70% and 75% and 80% and 85%	
414015 (antisense e[5mC]*e[5mC]*dT*dA*dG*dA*dT*dG*dG*dG*d[5mC]*dG*d[5mC]*dG*dA*eT*e[5mC]*eT*eG*eG) [compound 414015]	83%	60% and 65% and 70% and 75% and 80%	
414016 (antisense eA*eA*d[5mC]*d[5mC]*dT*dA*dG*dA*dT*dG*dG*dG*d[5mC]*dG*d[5mC]*eG*eA*eT*e[5mC]*eT) [compound 414016]	78%	60% and 65% and 70% and 75%	
414017 (antisense eA*eT*dA*dA*d[5mC]*d[5mC]*dT*dA*dG*dA*dT*dG*dG*dG*d[5mC]*eG*e[5mC]*eG*eA*eT) [compound 414017]	77%	60% and 65% and 70% and 75%	
414018 (antisense eA*eA*dA*dT*dA*dA*d[5mC]*d[5mC]*dT*dA*dG*dA*dT*dG*dG*eG*e[5mC]*eG*e[5mC]*eG) [compound 414018]	82%	60% and 65% and 70% and 75% and 80%	
414019 (antisense eG*eG*dA*dA*dA*dT*dA*dA*d[5mC]*d[5mC]*dT*dA*dG*dA*dT*eG*eG*eG*e[5mC]*eG) [compound 414019]	78%	60% and 65% and 70% and 75%	
414020 (antisense eG*eG*dA*dG*dG*d[5mC]*d[5mC]*d[5mC]*d[5mC]*dG*d[5mC]*d[5mC]*d[5mC]*d[5mC]*dT*eG*e[5mC]*eA*eG*eG) [compound 414020]	0%		
414021 (antisense eT*eG*dT*dA*d[5mC]*dA*dG*dG*dG*d[5mC]*dG*dA*dG*d[5mC]*dA*e[5mC]*eG*eG*e[5mC]*e[5mC]) [compound 414021]		60% and 65% and 70%	74%
414023 (antisense eT*e[5mC]*dG*dG*dG*d[5mC]*dT*d[5mC]*d[5mC]*dG*dG*dT*dT*d[5mC]*dT*eG*e[5mC]*eA*e[5mC]*eT) [compound 414023]	78%	60% and 65% and 70% and 75%	

Substance	% inhibition [1]	inhibition of a TGF-beta1 mRNA	% inhibition (gapmers targeted to SEQ ID NO: 2)
414024 (antisense eG*e[5mC]*dT*d[5mC]*dG*dG*dG*d[5mC]*dT*d[5mC]*d[5mC]*dG*dG*dT*dT*e[5mC]*eT*eG*e[5mC]*eA) [compound 414024]	83%	60% and 65% and 70% and 75% and 80%	
414025 (antisense eA*eG*dG*d[5mC]*dT*d[5mC]*dG*dG*dG*d[5mC]*dT*d[5mC]*d[5mC]*dG*dG*eT*eT*e[5mC]*eT*eG) [compound 414025]	79%	60% and 65% and 70% and 75%	
414026 (antisense e[5mC]*e[5mC]*dT*d[5mC]*dA*dG*dG*d[5mC]*dT*d[5mC]*dG*dG*dG*d[5mC]*dT*e[5mC]*e[5mC]*eG*eG*eT) [compound 414026]	82%	60% and 65% and 70% and 75% and 80%	
414027 (antisense eG*eG*d[5mC]*d[5mC]*dT*d[5mC]*dA*dG*dG*d[5mC]*dT*d[5mC]*dG*dG*dG*e[5mC]*eT*e[5mC]*e[5mC]*eG) [compound 414027]	84%	60% and 65% and 70% and 75% and 80%	
414028 (antisense e[5mC]*e[5mC]*dA*dT*dT*dA*dG*d[5mC]*dA*d[5mC]*dG*d[5mC]*dG*dG*dG*eT*eG*eA*e[5mC]*e[5mC]) [compound 414028]	75%	60% and 65% and 70% and 75%	
414029 (antisense eG*eA*dG*d[5mC]*dT*d[5mC]*dT*dG*dA*dT*dG*dT*dG*dT*dT*eG*eA*eA*eG*eA) [compound 414029]	73%	60% and 65% and 70%	
414030 (antisense e[5mC]*eT*dA*dA*dG*dG*d[5mC]*dG*dA*dA*dA*dG*d[5mC]*d[5mC]*d[5mC]*eT*e[5mC]*eA*eA*eT) [compound 414030]	60%	60%	
414031 (antisense eA*eT*dG*dT*d[5mC]*d[5mC]*dA*d[5mC]*dT*dT*dG*d[5mC]*dA*dG*dT*eG*eT*eG*eT*eT) [compound 414031]	66%	60% and 65%	
414032 (antisense eG*eG*dG*dT*dT*dA*dT*dG*d[5mC]*dT*dG*dG*dT*dT*dG*eT*eA*e[5mC]*eA*eG) [compound 414032]	80%	60% and 65% and 70% and 75% and 80%	
414033 (antisense e[5mC]*eT*d[5mC]*d[5mC]*dA*d[5mC]*d[5mC]*dT*dT*dG*dG*dG*d[5mC]*dT*dT*eG*e[5mC]*eG*eG*e[5mC]) [compound 414033]	80%	60% and 65% and 70% and 75% and 80%	
414034 (antisense e[5mC]*e[5mC]*dT*dT*dA*dA*dA*dT*dA*d[5mC]*dA*dG*d[5mC]*d[5mC]*d[5mC]*e[5mC]*e[5mC]*eA*eT*eG) [compound 414034]	68%	60% and 65%	
414038 (antisense eA*e[5mC]*dG*dG*dG*dT*dG*dT*d[5mC]*d[5mC]*dT*dT*dA*dA*dA*eT*eA*e[5mC]*eA*eG) [compound 414038]	85%	60% and 65% and 70% and 75% and 80% and 85%	
414039 (antisense eG*e[5mC]*dA*d[5mC]*dG*dG*dG*dT*dG*dT*d[5mC]*d[5mC]*dT*dT*dA*eA*eA*eT*eA*e[5mC]) [compound 414039]	83%	60% and 65% and 70% and 75% and 80%	
414041 (antisense eA*e[5mC]*dA*dG*dA*dG*dA*dT*d[5mC]*d[5mC]*dG*d[5mC]*dA*dG*dT*e[5mC]*e[5mC]*eT*e[5mC]*eT) [compound 414041]	74%	60% and 65% and 70%	
414042 (antisense e[5mC]*eG*d[5mC]*d[5mC]*d[5mC]*dA*dA*dT*dG*dA*d[5mC]*dA*d[5mC]*dA*dG*eA*eG*eA*eT*e[5mC]) [compound 414042]	68%	60% and 65%	
414043 (antisense e[5mC]*e[5mC]*dT*dT*dG*dA*dT*dG*d[5mC]*d[5mC]*dG*dG*dG*d[5mC]*dA*eA*eA*eG*eG*eA) [compound 414043]	64%	60%	
414044 (antisense eA*eT*d[5mC]*dT*dA*dA*d[5mC]*dT*dA*d[5mC]*dA*dG*dT*dA*dG*eT*eG*eT*eT*e[5mC]) [compound 414044]	31%		
